Patent publication US20110098296A1, “Thiazole And Oxazole Kinase Inhibitors” (priority 2007, published 2011)
pIC50: −log10 of the molar value.

Legend:
Colo205 tumor cells = assay: Method C: Cell Growth Inhibition Assay (CellTiter-Glo), Colo205; format: cell-based; settings: Homo sapiens, COLO 205, 72 h, 3 days, 4-parameter fit
Summary of the method: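 500 cells/well; next-day compound, 1:3 serial dilutions, 0.2% DMSO final; 3 d, 37° C, 5% CO2. Readout: CellTiter-Glo luminescence (total ATP as cell-number surrogate). IC50 from 4-parameter fit of % growth inhibition vs vehicle.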

SK-MEL-3 tumor cells = assay: Method C: Cell Growth Inhibition Assay (CellTiter-Glo), SK-MEL-3; format: cell-based; settings: Homo sapiens, SK-MEL3, 72 h, 3 days, 4-parameter fit
Method: (§1) Human breast tumor cells (BT474) were cultured in RPMI (Mediatech 50-011-PB), containing 10% FBS (JRH Biosciences 12176) and 1% penicillin-streptomycin (Invitrogen 15140). Human head and neck tumor cells (HN5) were cultured in high glucose DMEM (Mediatech 50-013-PB) containing 10% FBS and 1% penicillin-streptomycin. Human colon tumor cells (Colo205) were cultured in RPMI (Mediatech 50-020-PB) containing 10% FBS and 1% penicillin-streptomycin. Human melanoma cancer cells (SK-MEL-28) were cultured in EMEM with nonessential amino acids (Mediatech 50-011-PB) containing 10% FBS, 1% sodium pyruvate (JT Baker 3354-04), and 1% penicillin-streptomycin. Human melanoma cancer cells (A375P F11s) were cultured in RPMI (Mediatech 50-020-PB) containing 10% FBS, 1% sodium pyruvate, and 1% penicillin-streptomycin. Human colon cancer cells (HT-29) were cultured in high glucose DMEM (Mediatech 50-013-PB) containing 10% FBS and 1% penicillin-streptomycin. Human melanoma cancer cells (SK-MEL-3) were cultured in McCoy's 5A (50-025-PB) containing 15% FBS, and 1% penicillin-streptomycin. All cell lines were maintained at 37° C. in a humidified 5% CO2, 95% air incubator. Cells were harvested using trypsin/EDTA (Invitrogen 25200), counted using an haemocytometer, and plated. For 96-well assays (using white full-area NUNC plates cat. #136102), cells were plated in 105 μL at the following densities (cells/well): HN5, 500; Colo205, 500; SK-MEL-28, 500; A375P-F11s, 500; HT-29, 500; SK-MEL-3, 500; and BT474, 3000. For 384-well assays (white full-area NUNC plates, cat. #781080), cells were plated in 48 μL at the following densities (cells/well): HN5, 500; Colo205, 500; SK-MEL-28, 500; A375P-F11s, 500; HT29, 500; SK-MEL-3, 500; and BT474, 2000.
(§2) The next day, compounds were diluted as follow: For 96-well assays, 13.5 μL of compound in DMSO were diluted using nine (9) serial 1:3 dilutions of 4.5 μL in 9 μL of DMSO. Medium (270 μl/well of RPMI with 10% FBS and 1% penicillin-streptomycin) was added to the plates. Aliquots (7 μl) were added to cells in the final assay giving a final DMSO concentration of 0.2%. For 384-well assays, 15 μL of compound in DMSO were diluted using nine (9) serial 1:3 dilutions of 5 μL in 10 μL of DMSO, followed by a further dilution of 5 μL of compound with 95 μL of medium, of which 2 μL were added to cells in the final assay giving a final DMSO concentration of 0.2%. Cells were incubated at 37° C., 5% CO2 for 3 days.
(§3) Total ATP was measured (as a surrogate estimate of cell number) using CellTiter-Glo® reagent (Promega G7571). Briefly, plates were removed from the incubator and allowed to equilibrate to room temperature for 30 minutes. CellTiter-Glo® (25 μL or 55 μL for 384-well or 96-well assays, respectively) reagent was added to each well and plates were shaken on an orbital plate shaker for 2 mins. Plates were incubated without shaking for a further 30 mins and read on an LJL Analyst GT reader in luminometer mode with an integration time of 0.5 seconds per well. Percent inhibition of cell growth was calculated relative to DMSO vehicle-treated control wells. Concentration of compound required to give 50% inhibition of vehicle-treated control cell growth (IC50) was interpolated using a 4-parameter fit for determining IC50 using the following equation: Y=A+((B−A)/(1+((C/X)̂D))) where X=IC50.

HN5 tumor cells = assay: Method C: Cell Growth Inhibition Assay (CellTiter-Glo), HN5; format: cell-based; settings: Homo sapiens, 72 h, 3 days, 4-parameter fit
Summary of the method: (§4)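 Cells were seeded at 500 per well and dosed the next day with nine serial 1:3 compound dilutions (0.2% DMSO final), then grown 3 days at 37° C, 5% CO2. ATP was measured by CellTiter-Glo luminescence, and IC50 was interpolated by 4-parameter fit of percent inhibition versus DMSO controls.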

BT474 tumor cells = assay: Method C: Cell Growth Inhibition Assay (CellTiter-Glo), BT474; format: cell-based; settings: Homo sapiens, BT-474, 72 h, 3 days, 4-parameter fit
SK-MEL-28 tumor cells = assay: Method C: Cell Growth Inhibition Assay (CellTiter-Glo), SK-MEL-28; format: cell-based; settings: Homo sapiens, SK-MEL-28, 72 h, 3 days, 4-parameter fit
Summary of the method: as §4

ErbB2 = biological target: T1, ErbB2 (Homo sapiens, UniProt P04626); assay: ErbB-2 substrate phosphorylation assay (HTRF); format: biochemical; settings: Method (A): Enzyme Mix incubated with compound at 20° C. for 1 hr, reaction started by adding Substrate Mix
T1 construct: made in house; host or cells: baculovirus expression system
T1 sequence (P04626 23-1255): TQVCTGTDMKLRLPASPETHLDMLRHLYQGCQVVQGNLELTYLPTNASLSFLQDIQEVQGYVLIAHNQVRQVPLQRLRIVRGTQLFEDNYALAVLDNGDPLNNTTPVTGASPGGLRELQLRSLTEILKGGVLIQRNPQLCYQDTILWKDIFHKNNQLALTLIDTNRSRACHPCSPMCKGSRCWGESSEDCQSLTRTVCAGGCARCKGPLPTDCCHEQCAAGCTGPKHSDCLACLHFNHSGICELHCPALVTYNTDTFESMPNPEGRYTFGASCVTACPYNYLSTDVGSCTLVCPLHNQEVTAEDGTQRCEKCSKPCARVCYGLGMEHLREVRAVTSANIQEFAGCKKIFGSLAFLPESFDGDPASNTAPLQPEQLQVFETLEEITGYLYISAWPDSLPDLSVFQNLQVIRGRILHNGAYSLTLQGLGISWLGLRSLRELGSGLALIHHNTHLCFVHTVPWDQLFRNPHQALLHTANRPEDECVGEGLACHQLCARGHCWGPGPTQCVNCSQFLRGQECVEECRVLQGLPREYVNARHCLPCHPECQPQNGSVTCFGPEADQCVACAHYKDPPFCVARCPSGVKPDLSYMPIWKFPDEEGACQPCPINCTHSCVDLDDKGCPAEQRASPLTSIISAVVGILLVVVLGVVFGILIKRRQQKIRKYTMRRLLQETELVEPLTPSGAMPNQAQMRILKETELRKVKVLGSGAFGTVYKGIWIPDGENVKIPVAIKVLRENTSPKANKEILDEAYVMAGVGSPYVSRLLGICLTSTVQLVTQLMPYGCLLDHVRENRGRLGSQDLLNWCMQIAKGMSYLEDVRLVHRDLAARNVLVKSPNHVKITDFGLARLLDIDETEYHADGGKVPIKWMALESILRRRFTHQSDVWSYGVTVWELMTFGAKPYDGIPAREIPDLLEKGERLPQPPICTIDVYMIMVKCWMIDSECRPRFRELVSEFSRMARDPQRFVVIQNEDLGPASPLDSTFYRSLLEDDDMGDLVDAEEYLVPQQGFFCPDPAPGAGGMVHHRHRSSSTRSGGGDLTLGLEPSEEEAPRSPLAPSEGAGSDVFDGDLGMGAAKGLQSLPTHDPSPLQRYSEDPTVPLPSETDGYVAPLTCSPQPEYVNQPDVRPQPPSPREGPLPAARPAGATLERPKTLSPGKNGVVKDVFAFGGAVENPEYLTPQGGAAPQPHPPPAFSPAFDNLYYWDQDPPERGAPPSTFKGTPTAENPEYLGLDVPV
Summary of the method: (§5)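 Baculovirus-expressed kinase (0.8 nM EGFR or 10 nM ErbB2 in enzyme mix) with Peptide C 0.8 μM and ATP 20 μM (substrate-mix levels), MOPS pH 7.5, MnCl2; 90 min, 20 °C, HTRF anti-phosphotyrosine. Method A adds 1 h enzyme–compound preincubation; B none. pIC50, final compound 0.00027–47.6 μM.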

A375P F11s tumor cells = assay: Method C: Cell Growth Inhibition Assay (CellTiter-Glo), A375P F11s; format: cell-based; settings: Homo sapiens, 72 h, 3 days, 4-parameter fit
Method: as §1, §2, §3

HT-29 tumor cells = assay: Method C: Cell Growth Inhibition Assay (CellTiter-Glo), HT-29; format: cell-based; settings: Homo sapiens, HT-29, 72 h, 3 days, 4-parameter fit
Method: as §1, §2, §3

EGFR = biological target: T2, EGFR (Homo sapiens, UniProt P00533); assay: EGFR substrate phosphorylation assay (HTRF); format: biochemical; settings: Method (A): Enzyme Mix incubated with compound at 20° C. for 1 hr, reaction started by adding Substrate Mix
T2 construct: made in house; host or cells: baculovirus expression system
T2 sequence (P00533 25-1210): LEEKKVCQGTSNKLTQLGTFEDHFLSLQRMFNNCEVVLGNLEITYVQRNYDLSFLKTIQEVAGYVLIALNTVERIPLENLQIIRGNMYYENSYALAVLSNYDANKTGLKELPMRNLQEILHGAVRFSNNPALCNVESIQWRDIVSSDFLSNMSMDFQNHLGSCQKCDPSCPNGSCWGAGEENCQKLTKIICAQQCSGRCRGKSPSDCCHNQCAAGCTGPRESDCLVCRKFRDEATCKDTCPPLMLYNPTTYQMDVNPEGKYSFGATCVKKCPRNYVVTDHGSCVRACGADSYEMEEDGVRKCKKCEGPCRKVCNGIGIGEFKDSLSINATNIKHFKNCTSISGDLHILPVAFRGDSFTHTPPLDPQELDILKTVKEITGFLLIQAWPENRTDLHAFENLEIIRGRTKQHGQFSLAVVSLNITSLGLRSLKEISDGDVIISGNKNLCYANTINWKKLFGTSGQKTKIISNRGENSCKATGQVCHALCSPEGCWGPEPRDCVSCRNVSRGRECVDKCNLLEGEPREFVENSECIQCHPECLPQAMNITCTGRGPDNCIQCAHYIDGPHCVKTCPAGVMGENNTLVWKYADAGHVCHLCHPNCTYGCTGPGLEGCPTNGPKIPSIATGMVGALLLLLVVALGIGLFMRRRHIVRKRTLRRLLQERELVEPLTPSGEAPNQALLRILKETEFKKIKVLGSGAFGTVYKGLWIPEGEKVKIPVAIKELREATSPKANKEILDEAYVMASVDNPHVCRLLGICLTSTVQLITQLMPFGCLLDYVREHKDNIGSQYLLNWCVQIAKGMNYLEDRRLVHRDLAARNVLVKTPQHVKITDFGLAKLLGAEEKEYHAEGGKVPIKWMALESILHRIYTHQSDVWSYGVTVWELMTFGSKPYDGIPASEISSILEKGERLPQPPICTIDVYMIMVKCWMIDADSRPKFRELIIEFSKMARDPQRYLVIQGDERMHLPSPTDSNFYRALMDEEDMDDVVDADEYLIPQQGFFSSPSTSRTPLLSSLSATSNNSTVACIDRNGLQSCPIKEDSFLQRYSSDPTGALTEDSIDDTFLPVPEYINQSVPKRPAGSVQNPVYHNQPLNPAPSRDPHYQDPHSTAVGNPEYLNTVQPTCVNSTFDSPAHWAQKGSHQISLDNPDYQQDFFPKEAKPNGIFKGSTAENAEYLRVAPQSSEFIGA
Summary of the method: as §5

SMILES	pIC50 (Colo205 tumor cells)	pIC50 (SK-MEL-3 tumor cells)	pIC50 (HN5 tumor cells)	pIC50 (BT474 tumor cells)	pIC50 (SK-MEL-28 tumor cells)	pIC50 (ErbB2)	pIC50 (A375P F11s tumor cells)	pIC50 (HT-29 tumor cells)	pIC50 (EGFR)
CN(C)c1nc(-c2cccc(NC(=O)c3c(F)cccc3F)c2)c(-c2ccnc(Nc3cccc(CN4CCCC4)c3)n2)s1 [Example 39, N-{3-[2-(Dimethylamino)-5-(2-{[3-(1-pyrrolidinylmethyl)phenyl]amino}-4-pyrimidinyl)-1,3-thiazol-4-yl]phenyl}-2,6-difluorobenzamide]	6.00 to 7.00	6.00 to 7.00	6.00 to 7.00	> 7.00	< 6.00	> 7.00	6.00 to 7.00	6.00 to 7.00	> 7.00
CN(C)c1nc(-c2cccc(NC(=O)c3c(F)cccc3F)c2)c(-c2ccnc(Nc3ccc(OCCN4CCCC4)c(Cl)c3)n2)s1 [Example 40, N-{3-[5-{2-[(3-Chloro-4-{[2-(1-pyrrolidinyl)ethyl]oxy}phenyl)amino]-4-pyrimidinyl}-2-(dimethylamino)-1,3-thiazol-4-yl]phenyl}-2,6-difluorobenzamide]	6.00 to 7.00	6.00 to 7.00	6.00 to 7.00	6.00 to 7.00	6.00 to 7.00	> 7.00	6.00 to 7.00	6.00 to 7.00	> 7.00
CN1CCc2ccc(Nc3nccc(-c4sc(N5CCCC5)nc4-c4cccc(NC(=O)c5c(F)cccc5F)c4)n3)cc2C1 [Example 44, 2,6-Difluoro-N-{3-[5-{2-[(2-methyl-1,2,3,4-tetrahydro-7-isoquinolinyl)amino]-4-pyrimidinyl}-2-(1-pyrrolidinyl)-1,3-thiazol-4-yl]phenyl}benzamide]	6.00 to 7.00	< 6.00	6.00 to 7.00	6.00 to 7.00	6.00 to 7.00	> 7.00	< 6.00	6.00 to 7.00	> 7.00
CN(C)CCOc1ccc(Nc2nccc(-c3sc(N4CCN(C)CC4)nc3-c3cccc(NC(=O)c4c(F)cccc4F)c3)n2)cc1Cl [Example 45, N-{3-[5-{2-[(3-Chloro-4-{[2-(dimethylamino)ethyl]oxy}phenyl)amino]-4-pyrimidinyl}-2-(4-methyl-1-piperazinyl)-1,3-thiazol-4-yl]phenyl}-2,6-difluorobenzamide]	6.00 to 7.00	6.00 to 7.00	6.00 to 7.00	6.00 to 7.00	< 6.00	> 7.00	6.00 to 7.00	6.00 to 7.00	> 7.00
CN(C)CCOc1ccc(Nc2nccc(-c3sc(N)nc3-c3cccc(NC(=O)c4cc(F)ccc4F)c3)n2)cc1Cl [Example 56]	6.00 to 7.00	< 6.00	> 7.00	> 7.00	< 6.00	> 7.00	6.00 to 7.00	6.00 to 7.00	> 7.00
CN(C)CCOc1ccc(Nc2nccc(-c3sc(N)nc3-c3ccc(F)c(NC(=O)c4c(F)cccc4F)c3)n2)cc1Cl [Example 67]	> 7.00	6.00 to 7.00	> 7.00	> 7.00	6.00 to 7.00	> 7.00	6.00 to 7.00	6.00 to 7.00	> 7.00
CN(C)CCOc1ccc(Nc2nccc(-c3sc(N)nc3-c3cc(NC(=O)c4c(F)cccc4F)ccc3F)n2)cc1Cl [Example 68, N-[3-(2-Amino-5-{2-[(3-chloro-4-{[2-(dimethylamino)ethyl]oxy}phenyl)amino]-4-pyrimidinyl}-1,3-thiazol-4-yl)-4-fluorophenyl]-2,6-difluorobenzamide]	6.00 to 7.00	6.00 to 7.00	> 7.00	> 7.00	6.00 to 7.00	> 7.00	6.00 to 7.00	6.00 to 7.00	> 7.00
